Measured values as given in patent US20020025918A1, “Methods of using helical peptides in plants” (priority 1987, published 2002).
≈ marks a conversion by molar mass, not a printed value. Read-outs that look alike come from different tables or passages of the source. Residues, ends and D or L forms follow the SMILES beside them.

How the values were obtained:
S. aureus = assay: MBC and MIC susceptibility test; assay type: cell-based
[1] = Survival of non-infected catfish fingerlings injected with peptide; assay type: in vivo; settings: 200 μg i.p. once per day for 4 days
Procedure: […] Treatment groups of the fish were then injected intraperitoneally (i.p.) with the lytic peptide LSB-37 dissolved in saline, or a saline control once per day for a period of 4 days.

P. aeruginosa = assay: MBC and MIC susceptibility test; assay type: cell-based
[2] = 3T3 fibroblast viability, trypan blue exclusion; assay type: cell-based; settings: human, 100 μM peptide, one hour, read-out: % Cell Viability
Procedure: (§1) B-16 myeloma cells and normal 3T3 […] fibroblasts were either permitted to attach to the test plate, or treated with trypsin to free the cells from the plastic dish prior to treatment. Cells were then treated with 100 μM lytic peptide for one hour as described above, and cell viability was then determined by trypan blue exclusion.

Enterobacteria Cloacae = assay: MIC/MBC, fresh isolates; assay type: cell-based; settings: fresh isolate Enterobacteria Cloacae
Source text: (§2) The procedure of example 2 was followed using a variety of freshly isolated bacterial samples.

Pseudomonas aeruginosa-3 = assay: MIC/MBC, fresh isolates; assay type: cell-based; settings: fresh isolate Pseudomonas aeruginosa-3
Source text: as §2

Pseudomonas aeruginosa-2 = assay: MIC/MBC, fresh isolates; assay type: cell-based; settings: fresh isolate Pseudomonas aeruginosa-2
Source text: as §2

Enterococcus-3 = assay: MIC/MBC, fresh isolates; assay type: cell-based; settings: fresh isolate Enterococcus-3
Source text: as §2

Eschera Coli = assay: MIC/MBC, fresh isolates; assay type: cell-based; settings: fresh isolate Eschera Coli
Source text: as §2

Klebsiella pheumoniae = assay: MIC/MBC, fresh isolates; assay type: cell-based; settings: fresh isolate Klebsiella pheumoniae
Source text: as §2

Pseudomonas aeruginosa-1 = assay: MIC/MBC, fresh isolates; assay type: cell-based; settings: fresh isolate Pseudomonas aeruginosa-1
Source text: as §2

Staph aureus = assay: MIC/MBC, fresh isolates; assay type: cell-based; settings: fresh isolate Staph aureus
Source text: as §2

Citrobacter Freundii = assay: MIC/MBC, fresh isolates; assay type: cell-based; settings: fresh isolate Citrobacter Freundii
Source text: as §2

Morganella morganil = assay: MIC/MBC, fresh isolates; assay type: cell-based; settings: fresh isolate Morganella morganil
Source text: as §2

Staph Coag neg = assay: MIC/MBC, fresh isolates; assay type: cell-based; settings: fresh isolate Staph Coag neg
Source text: as §2

Enterococcus-2 = assay: MIC/MBC, fresh isolates; assay type: cell-based; settings: fresh isolate Enterococcus-2
Source text: as §2

Klebsiella pheumoniae-2 = assay: MIC/MBC, fresh isolates; assay type: cell-based; settings: fresh isolate Klebsiella pheumoniae-2
Source text: as §2

Acinetobacter Cal Anit = assay: MIC/MBC, fresh isolates; assay type: cell-based; settings: fresh isolate Acinetobacter Cal Anit
Source text: as §2

Serratia Marcescens = assay: MIC/MBC, fresh isolates; assay type: cell-based; settings: fresh isolate Serratia Marcescens
Source text: as §2

Enterococcus-1 = assay: MIC/MBC, fresh isolates; assay type: cell-based; settings: fresh isolate Enterococcus-1
Source text: as §2

Citrobacter Diversus = assay: MIC/MBC, fresh isolates; assay type: cell-based; settings: fresh isolate Citrobacter Diversus
Source text: as §2

B-16 myeloma cells = assay: B-16 cell viability, trypan blue exclusion; assay type: cell-based; settings: 100 μM peptide, one hour
Procedure: as §1

E. coli = assay: MBC and MIC susceptibility test; assay type: cell-based
[3] = Role of cytoskeletal structure in susceptibility to lysis, FDD cell viability; settings: donkey, primary fetal donkey dermal cells (FDD), % Viability of Treated DD Cells, 100 μM peptide 15 minutes
Staph auerus-MR-1 = assay: MIC/MBC, fresh isolates; assay type: cell-based; settings: fresh isolate Staph auerus-MR-1
Source text: as §2

Staph aureus-MR-2 = assay: MIC/MBC, fresh isolates; assay type: cell-based; settings: fresh isolate Staph aureus-MR-2
Source text: as §2

[4] = system: Human mononuclear leukocytes; assay: 3H-thymidine uptake in WBC (proliferation); assay type: cell-based
Procedure: Human mononuclear leukocytes were isolated from whole blood in the following manner. Blood was collected in vacutainer tubes containing EDTA, and was then diluted with an equal valume of calcium and magnesium-free PBS and layered over Histopaque resin (GIBCO). The tubes were centrifuged for 30 minutes at 25° C. and 450× g. The plasma and platelets above the banded layer of cells in the resulting gradient were removed and discarded. The banded white blood cells were removed to fresh test tubes, washed 3 times with PBS, and resuspended in RPMI medium containing 10% fetal bovine serum (FBS), mercaptoethanol, and penicillin and streptomycin as antibiotics. The cells were then counted and resuspended to a final concentration of 3×10^6 cells/ml.
To each well of a 96 well flat-bottomed microtiter plate was aded 100 μl of cells (3×10^5 cells). Treatment groups were set in quadruplicate samples. The appropriate concentration of test peptide and/or the mitogen hytohemaglutinate (PHA), was added in a total volume of 100 μl of medium to the test wells. The plates were then incubated at 37° C. and 5% CO2 for a duration of 72 hours. At the end of the incubation period, 1 μCi of 3H-thymidine in 1 μl TRIS-HCI, PH8 was added to each well, and the plates incubated an additional 18 hours.
Cellular DNA was harvested onto glass fiber filters using a semi-automatic cell harvester. The glass filters were then placed into vials containing scintillation fluid, and the samples were counted in a scintillation counter. The uptake of 3H-thymidine is an indiator of cell proliferation, thus the higher the number of counts in the sample, the greater the proliferative activity of the cells. The results in Table XI indicate that low dose of the synthetic peptides of this invention stimulate cell growth.

## CC[C@H](C)[C@H](NC(=O)CNC(=O)[C@H](CC(N)=O)NC(=O)[C@H](CCCNC(=N)N)NC(=O)[C@@H](NC(=O)[C@H](CC(N)=O)NC(=O)[C@H](CCCNC(=N)N)NC(=O)CNC(=O)[C@@H](NC(=O)[C@H](CCCCN)NC(=O)[C@H](CCC(=O)O)NC(=O)[C@@H](NC(=O)[C@H](CCCCN)NC(=O)[C@H](CCCCN)NC(=O)[C@H](Cc1ccccc1)NC(=O)[C@@H](NC(=O)[C@H](CCCCN)NC(=O)[C@H](Cc1c[nH]c2ccccc12)NC(=O)[C@H](CCCCN)NC(=O)[C@@H]1CCCN1C(=O)[C@@H](N)CC(C)C)C(C)C)[C@@H](C)CC)C(C)C)[C@@H](C)CC)C(=O)N[C@H](C(=O)N[C@@H](CCCCN)C(=O)N[C@@H](C)C(=O)NCC(=O)N1CCC[C@H]1C(=O)N[C@@H](C)C(=O)N[C@H](C(=O)N[C@@H](C)C(=O)N[C@H](C(=O)N[C@@H](CC(C)C)C(=O)NCC(=O)N[C@@H](CCC(=O)O)C(=O)N[C@@H](C)C(=O)N[C@@H](CCCCN)C(=O)N[C@@H](C)C(=O)N[C@@H](CC(C)C)C(=O)NCC(N)=O)C(C)C)[C@@H](C)CC)C(C)C [LSB-37] (H-LPKWKVFKKIEKVGRNIRNGIVKAGPAIAVLGEAKALG-NH2)
S. aureus; S. auerus (+)
  antibacterial result of treatment (Table I; MBC): 64 µM
S. aureus; Table III, S. aureus (+)
  MBC: 64 µM (≈ 260 µg/mL)
[1]
  % Survival: 100%
P. aeruginosa; P. aeruginosa (−)
  antibacterial result of treatment (Table I; MBC): 8 µM
P. aeruginosa; Table III, P. aeuriginosa (−)
  MBC: 3.6 µM (≈ 14.7 µg/mL)
[2]; normal 3T3 human fibroblasts, 3T3 Suspension (trypsinized)
  viability at 1 h, 100 μM: 12%
[2]; 3T3 Monolayer
  viability at 1 h, 100 μM: 94%
Enterobacteria Cloacae
  MBC: 8 µM (≈ 32.6 µg/mL)
  MIC: 2 µM (≈ 8.14 µg/mL)
Pseudomonas aeruginosa-3
  MBC: 16 µM (≈ 65.1 µg/mL)
  MIC: 8 µM (≈ 32.6 µg/mL)
Pseudomonas aeruginosa-2
  MBC: 16 µM (≈ 65.1 µg/mL)
  MIC: 4 µM (≈ 16.3 µg/mL)
Enterococcus-3
  MIC: 32 µM (≈ 130 µg/mL)
Eschera Coli
  MBC: 4 µM (≈ 16.3 µg/mL)
  MIC: 1 µM (≈ 4.07 µg/mL)
Klebsiella pheumoniae
  MBC: 8 µM (≈ 32.6 µg/mL)
  MIC: 2 µM (≈ 8.14 µg/mL)
Pseudomonas aeruginosa-1
  MBC: 16 µM (≈ 65.1 µg/mL)
  MIC: 8 µM (≈ 32.6 µg/mL)
Staph aureus
  MIC: 32 µM (≈ 130 µg/mL)
Citrobacter Freundii
  MBC: 4 µM (≈ 16.3 µg/mL)
  MIC: 1 µM (≈ 4.07 µg/mL)
Morganella morganil
  MIC: 32 µM (≈ 130 µg/mL)
Staph Coag neg
  MIC: 32 µM (≈ 130 µg/mL)
Enterococcus-2
  MIC: 32 µM (≈ 130 µg/mL)
Klebsiella pheumoniae-2
  MBC: 8 µM (≈ 32.6 µg/mL)
  MIC: 4 µM (≈ 16.3 µg/mL)
Acinetobacter Cal Anit
  MBC: 1 µM (≈ 4.07 µg/mL)
  MIC: 0.5 µM (≈ 2.04 µg/mL)
Serratia Marcescens
  MIC: 32 µM (≈ 130 µg/mL)
Enterococcus-1
  MBC: 32 µM (≈ 130 µg/mL)
  MIC: 8 µM (≈ 32.6 µg/mL)
Citrobacter Diversus
  MBC: 4 µM (≈ 16.3 µg/mL)
  MIC: 1 µM (≈ 4.07 µg/mL)
B-16 myeloma cells; B-16 Monolayer
  % Cell Viability: 78%
B-16 myeloma cells; B-16 Suspension (trypsinized)
  % Cell Viability: 22%
E. coli
  antibacterial result of treatment (Table I; MBC): 16 µM
E. coli; Table III
  MBC: 2.0 µM (≈ 8.14 µg/mL)
[3]; Cold-treated (4° C.)
  viability at 15 minutes, 100 μM: 70%
[3]; Warm-treated (37° C.)
  viability at 15 minutes, 100 μM: 96%
[3]; with colchicine 0.1 μg/ml (cytoskeletal inhibitor), Colchicine-treated (0.1 μg/ml)
  viability at 15 minutes, 100 μM: 40%
[3]; with cytochalasin D 5 μg/ml (cytoskeletal inhibitor), Cytochalasin D-treated (5 μg/ml)
  viability at 15 minutes, 100 μM: 32%

## CC(C)C[C@H](NC(=O)[C@H](CCCCN)NC(=O)[C@H](CCCCN)NC(=O)[C@H](C)NC(=O)[C@H](CC(C)C)NC(=O)[C@H](CCCCN)NC(=O)[C@H](C)NC(=O)[C@H](CC(C)C)NC(=O)[C@H](CCCCN)NC(=O)[C@H](CCCCN)NC(=O)[C@H](C)NC(=O)[C@H](CC(C)C)NC(=O)[C@H](CCCCN)NC(=O)[C@H](CCCCN)NC(=O)[C@H](CC(C)C)NC(=O)[C@H](CCCCN)NC(=O)[C@H](CCCCN)NC(=O)[C@H](C)NC(=O)[C@H](CC(C)C)NC(=O)[C@H](CCCCN)NC(=O)[C@H](CCCCN)NC(=O)[C@H](C)NC(=O)[C@@H](N)Cc1ccccc1)C(N)=O [Anubis-2] (H-FAKKLAKKLKKLAKKLAKLAKKL-NH2)
Staph auerus-MR-1
  MIC: 51.2 µM (≈ 134 µg/mL)
Enterobacteria Cloacae
  MBC: 12.8 µM (≈ 33.4 µg/mL)
  MIC: 6.4 µM (≈ 16.7 µg/mL)
Staph aureus-MR-2
  MBC: 25.6 µM (≈ 66.8 µg/mL)
  MIC: 12.8 µM (≈ 33.4 µg/mL)
Pseudomonas aeruginosa-3
  MBC: 51.2 µM (≈ 134 µg/mL)
  MIC: 6.4 µM (≈ 16.7 µg/mL)
Pseudomonas aeruginosa-2
  MBC: 6.4 µM (≈ 16.7 µg/mL)
  MIC: 3.2 µM (≈ 8.35 µg/mL)
Enterococcus-3
  MIC: 51.2 µM (≈ 134 µg/mL)
Eschera Coli
  MBC: 12.8 µM (≈ 33.4 µg/mL)
  MIC: 6.4 µM (≈ 16.7 µg/mL)
Klebsiella pheumoniae
  MBC: 6.4 µM (≈ 16.7 µg/mL)
  MIC: 3.2 µM (≈ 8.35 µg/mL)
Pseudomonas aeruginosa-1
  MBC: 25.6 µM (≈ 66.8 µg/mL)
  MIC: 6.4 µM (≈ 16.7 µg/mL)
Staph aureus
  MBC: 51.2 µM (≈ 134 µg/mL)
  MIC: 6.4 µM (≈ 16.7 µg/mL)
Citrobacter Freundii
  MBC: 6.4 µM (≈ 16.7 µg/mL)
  MIC: 3.2 µM (≈ 8.35 µg/mL)
Morganella morganil
  MIC: 51.2 µM (≈ 134 µg/mL)
Staph Coag neg
  MBC: 3.2 µM (≈ 8.35 µg/mL)
  MIC: 1.6 µM (≈ 4.17 µg/mL)
Enterococcus-2
  MIC: 51.2 µM (≈ 134 µg/mL)
Klebsiella pheumoniae-2
  MBC: 25.6 µM (≈ 66.8 µg/mL)
  MIC: 6.4 µM (≈ 16.7 µg/mL)
Acinetobacter Cal Anit
  MBC: 3.2 µM (≈ 8.35 µg/mL)
  MIC: 3.2 µM (≈ 8.35 µg/mL)
Serratia Marcescens
  MIC: 51.2 µM (≈ 134 µg/mL)
Enterococcus-1
  MBC: 3.2 µM (≈ 8.35 µg/mL)
  MIC: 1.6 µM (≈ 4.17 µg/mL)
Citrobacter Diversus
  MBC: 6.4 µM (≈ 16.7 µg/mL)
  MIC: 3.2 µM (≈ 8.35 µg/mL)
[4]; peptide 10 μM, PHA 0 mg
  3H-Thymidine Uptake in WBC, % of Control: 149%
[4]; peptide 10 μM, PHA 0.5 mg
  3H-Thymidine Uptake in WBC, % of Control: 290%
[4]; peptide 10 μM, PHA 5.0 mg
  3H-Thymidine Uptake in WBC, % of Control: 120%
[4]; peptide 25 μM, PHA 0 mg
  3H-Thymidine Uptake in WBC, % of Control: 46%
[4]; peptide 25 μM, PHA 0.5 mg
  3H-Thymidine Uptake in WBC, % of Control: 393%
[4]; peptide 25 μM, PHA 5.0 mg
  3H-Thymidine Uptake in WBC, % of Control: 108%
[4]; peptide 50 μM, PHA 0 mg
  3H-Thymidine Uptake in WBC, % of Control: 19%
[4]; peptide 50 μM, PHA 0.5 mg
  3H-Thymidine Uptake in WBC, % of Control: 4%
[4]; peptide 50 μM, PHA 5.0 mg
  3H-Thymidine Uptake in WBC, % of Control: 1%
[4]; peptide 100 μM, PHA 0 mg
  3H-Thymidine Uptake in WBC, % of Control: 26%
[4]; peptide 100 μM, PHA 0.5 mg
  3H-Thymidine Uptake in WBC, % of Control: 5%
[4]; peptide 100 μM, PHA 5.0 mg
  3H-Thymidine Uptake in WBC, % of Control: 0%
